Patent publication EP3046573B1, “AMYLIN ANALOGUES” (Zealand Pharma A/S, priority 2013, dated 2015)
Numbered stars: 1 amine (or outer) side, 2 acyl side, 3 side chain; on linkers, the order of the positions; unused ones are H or OH. Bridge positions count the residues as written; N and C are the ends. Square brackets hold non-standard residues; d marks the D form. Peptide text beside a SMILES is read from it. * marks the point of attachment. C20 diacid = O=C(O)CCCCCCCCCCCCCCCCCCC(=O)*; γGlu = O=C(O)[C@H](CCC(=O)[*:2])N[*:1]; NMeI = CC[C@H](C)[C@H](NC)C(=O)O; Sar = CNCC(=O)O

Experiments:
[1] = Assessment of chemical stability: normalized purity by RP-HPLC after incubation at 40 °C; format: physicochemical; details: normalized purity (T=0 set to 100), 0.2 mg/ml
Outline: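 Peptides at 0.2 mg/ml in water adjusted to pH 4, 7.5 or 9, held at 40 °C for 7 days. Purity by RP-HPLC (C8/ammonium formate or C18/TFA gradients), UV 220 nm, as main-peak area-%; normalized to T=0 set as 100 for each pH.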

[2] = Pharmacokinetics of test compounds in mice; format: in vivo; details: female, NMRI, mouse, plasma; for bioavailability: AUCinf (sc) / AUCinf (iv) x 100, 100 nmol/kg (Pramlintide 400 nmol/kg); for half-life: 100 nmol/kg (Pramlintide 400 nmol/kg)
Experimental: NMRI mice (supplier: Taconic; females with a body weight of approximately 25 g) were given either a single subcutaneous (sc) bolus or a single intravenous (iv) bolus of each peptide to be tested.
Following sc administration of test peptide (Compound 176, 1 or 18) (100 nmol/kg), blood samples were drawn 0.5, 2, 4, 8, 18, 40 and 56 hours post-dosing by eye bleeding. Following iv administration of Compound 176, 1 or 18 (100 nmol/kg), blood samples were drawn 0.08, 0.17, 0.5, 2, 8, 18 and 30 hours post-dosing by eye bleeding. The dosing vehicle used for each test peptide was a mannitol-containing histidine buffer (pH 7.0).
Pramlintide (400 nmol/kg) was also administered as a single sc bolus or as a single iv bolus to mice. Following sc administration, blood samples were drawn 5, 15, 20, 30, 60, 120, 180 and 240 minutes post-dosing by sublingual bleeding. Following iv administration, blood samples were drawn 5, 10, 15, 30, 60, 120, 180, and 240 minutes post-dosing by sublingual bleeding. The dosing vehicle used for Pramlintide was a mannitol-containing acetate buffer (pH 4.0).
Blood samples were taken from two mice at each time point, i.e. 14-16 mice were included for each compound. The mice were euthanized immediately after blood sampling by cervical dislocation. Plasma samples were analyzed after solid-phase extraction (SPE) by liquid chromatography mass spectrometry (LC-MS/MS). Mean plasma concentrations were used for calculation of the pharmacokinetic parameters using the non-compartmental approach in Phoenix WinNonlin 6.3.
Plasma terminal elimination half-life (t½) was determined as In(2)/λz, where λz is the magnitude of the slope of the log linear regression of the log concentration versus time profile during the terminal phase.
Bioavailability was determined as AUCinf (sc) / AUCinf (iv) x 100, where AUCinf is the area under the plasma concentration - time curve extrapolated to infinity (AUCinf = AUClast + Clast/λz, where Clast is the last observed plasma concentration).

[3] = Pharmacokinetic (PK) profiling in rats; format: in vivo; details: male, Sprague Dawley, rat, plasma, single sc bolus, 100 nmol/kg (18, NN96), 20 nmol/kg (72, 76), 30 nmol/kg (73, 82, 118, 162, 166, 172)
Experimental: Sprague Dawley male rats were given a single subcutaneous (sc) bolus of each peptide to be tested at doses as specified below..
Study A: Following the administration of a 100 nmol/kg dose of a test peptide of the invention (Compound 18) and a comparison pramlintide analogue NN96 (see Example 5, above), respectively, blood samples were drawn from the tail vein at 0.5, 3, 8, 15, 36, 60 and 81 hours post-dosing. 4 rats were used (2 rats per compound). The rats were euthanized immediately after the last blood sampling by overdose of O2/CO2.
Study B: 20 nmol/kg doses of Compound 72 and Compound 76, respectively, of the invention were administered. Blood samples were drawn by sublingual bleeding prior to dosing and at 2, 6, 12, 24, 48, 72 and 96 hours after dosing. 4 rats were used (2 rats per compound). The rats were euthanized immediately after the last blood sampling by overdose of O2/CO2.
Study C: 30 nmol/kg doses of Compound 73, Compound 82 and Compound 118, respectively, of the invention were administered. Blood samples were drawn from the tail vein prior to dosing and at 24, 48, 72 and 96 hours after dosing. Blood samples were taken from two rats at each time point, and only 2 blood samples were drawn from each rat, i.e. 8 rats were used for each compound. The rats were euthanized immediately after the last blood sampling by concussion and cervical dislocation.
Study D: 30 nmol/kg doses of Compound 162, Compound 166 and Compound 172 were administered. Blood samples were drawn from the tail vein prior to dosing and at 24, 48, 72, 96 and 168 hours after dosing. Blood samples were taken from two rats at each time point, and only 2 blood samples were drawn from each rat, i.e. 10 rats were used for each compound. The rats were euthanized immediately after the last blood sampling by concussion and cervical dislocation.
The dosing vehicle used for each test peptide was a mannitol-containing histidine buffer (pH 7.0). Plasma samples were analyzed after precipitation with ethanol by liquid chromatography mass spectrometry (LC-MS/MS). Mean plasma concentrations were used for calculation of the pharmacokinetic parameters using the non-compartmental approach in Phoenix WinNonlin 6.3.
Plasma terminal elimination half-life (t½) was determined as In(2)/λz, where λz is the magnitude of the slope of the log linear regression of the log concentration versus time profile during the terminal phase. Apparent clearance (CL/F) was determined as dose/AUCinf (sc), where AUCinf is the area under the plasma concentration vs. time curve extrapolated to infinity (AUCinf = AUClast + Clast/λz, where Clast is the last observed plasma concentration).

[4] = single iv bolus, read-out: t½ (hours) iv (converted)
[5] = single sc bolus, read-out: t½ (hours) sc (converted)

Row | SMILES | Chem. stability; 7 days, 40°C pH 4 ([1]; pH 4, 7 days) [area-%] | Chem. stability; 7 days, 40°C pH 7.5 ([1]; pH 7.5, 7 days) [area-%] | Chem. stability; 7 days, 40°C pH 9 ([1]; pH 9, 7 days) [area-%] | bioavailability [2] [%] | half-life [2, 4] [h] | half-life [2, 5] [h] | CL/F ([3]; apparent clearance) [mL/h/kg] | half-life ([3]; terminal elimination half-life, read-out: t½ (converted)) [h]
1 | CC[C@H](C)[C@@H](C(=O)N[C@@H](CC(C)C)C(=O)N[C@@H](CO)C(=O)N[C@@H](CO)C(=O)N[C@H](C(=O)N[C@@H](CC(N)=O)C(=O)N[C@H](C(=O)NCC(=O)N[C@@H](CO)C(=O)N[C@@H](CC(N)=O)C(=O)N[C@H](C(=O)N1CCC[C@H]1C(N)=O)[C@@H](C)O)C(C)C)[C@@H](C)O)N(C)C(=O)[C@H](C)NC(=O)CN(C)C(=O)[C@H](Cc1ccccc1)NC(=O)[C@H](CC(N)=O)NC(=O)[C@H](CC(N)=O)NC(=O)[C@H](CO)NC(=O)[C@H](CO)NC(=O)[C@H](Cc1c[nH]cn1)NC(=O)[C@H](Cc1c[nH]cn1)NC(=O)[C@H](CC(C)C)NC(=O)[C@H](Cc1ccccc1)NC(=O)[C@H](CCC(=O)O)NC(=O)[C@H](C)NC(=O)[C@H](CC(C)C)NC(=O)[C@H](CCCNC(=N)N)NC(=O)[C@H](CCC(N)=O)NC(=O)[C@@H](NC(=O)[C@H](C)NC(=O)[C@@H]1CSSC[C@H](NC(=O)[C@H](CCCNC(=N)N)NC(=O)CC[C@H](NC(=O)CCCCCCCCCCCCCCCCCCC(=O)O)C(=O)O)C(=O)N[C@@H](CC(N)=O)C(=O)N[C@@H]([C@@H](C)O)C(=O)N[C@@H](C)C(=O)N[C@@H]([C@@H](C)O)C(=O)N1)[C@@H](C)O [Compound 1, [19CD]-isoGlu-RC()NTATC()ATQRLAEFLHHSSNNF-Gly(Me)-A-Ile(Me)-LSSTNVGSNTP-NH2] ({C20 diacid-γGlu}-RCNTATCATQRLAEFLHHSSNNF[Sar]A[NMeI]LSSTNVGSNTP-NH2; disulfide 2-7) | 89 | 64 | 56 | 77 | 32.9 | 34.6 | – | –
2 | CC[C@H](C)[C@@H](C(=O)N[C@@H](CC(C)C)C(=O)N[C@@H](CO)C(=O)N[C@@H](CO)C(=O)N[C@H](C(=O)N[C@@H](CC(N)=O)C(=O)N[C@H](C(=O)NCC(=O)N[C@@H](CO)C(=O)N[C@@H](CC(N)=O)C(=O)N[C@H](C(=O)N1CCC[C@H]1C(N)=O)[C@@H](C)O)C(C)C)[C@@H](C)O)N(C)C(=O)[C@H](C)NC(=O)CN(C)C(=O)[C@H](Cc1ccccc1)NC(=O)[C@H](CC(N)=O)NC(=O)[C@H](CC(N)=O)NC(=O)[C@H](CO)NC(=O)[C@H](CO)NC(=O)[C@H](CCCNC(=N)N)NC(=O)[C@H](Cc1c[nH]cn1)NC(=O)[C@H](CC(C)C)NC(=O)[C@H](Cc1ccccc1)NC(=O)[C@H](CCC(=O)O)NC(=O)[C@H](C)NC(=O)[C@H](CC(C)C)NC(=O)[C@H](CCCNC(=N)N)NC(=O)[C@H](CCC(N)=O)NC(=O)[C@@H](NC(=O)[C@H](C)NC(=O)[C@@H]1CSSC[C@H](NC(=O)[C@H](CCCNC(=N)N)NC(=O)CC[C@H](NC(=O)CCCCCCCCCCCCCCCCCCC(=O)O)C(=O)O)C(=O)N[C@@H](CC(N)=O)C(=O)N[C@@H]([C@@H](C)O)C(=O)N[C@@H](C)C(=O)N[C@@H]([C@@H](C)O)C(=O)N1)[C@@H](C)O [Compound 18, [19CD]-isoGlu-RC()NTATC()ATQRLAEFLHRSSNNF-Gly(Me)-A-Ile(Me)-LSSTNVGSNTP-NH2] ({C20 diacid-γGlu}-RCNTATCATQRLAEFLHRSSNNF[Sar]A[NMeI]LSSTNVGSNTP-NH2; disulfide 2-7) | – | – | – | 79 | 20.8 | 22.8 | 3.48 | 37.6
3 | CC[C@H](C)[C@@H](C(=O)N[C@@H](CC(C)C)C(=O)N1CCC[C@H]1C(=O)N1CCC[C@H]1C(=O)N[C@H](C(=O)N[C@@H](CC(N)=O)C(=O)N[C@H](C(=O)NCC(=O)N[C@@H](CO)C(=O)N[C@@H](CC(N)=O)C(=O)N[C@H](C(=O)N1CCC[C@H]1C(N)=O)[C@@H](C)O)C(C)C)[C@@H](C)O)N(C)C(=O)CN(C)C(=O)[C@H](Cc1ccccc1)NC(=O)[C@H](CC(N)=O)NC(=O)[C@H](CC(N)=O)NC(=O)[C@H](CO)NC(=O)[C@H](CO)NC(=O)[C@H](Cc1c[nH]cn1)NC(=O)[C@H](Cc1c[nH]cn1)NC(=O)[C@H](CC(C)C)NC(=O)[C@H](Cc1ccccc1)NC(=O)[C@H](CCC(=O)O)NC(=O)[C@H](C)NC(=O)[C@H](CC(C)C)NC(=O)[C@H](CCCNC(=N)N)NC(=O)[C@H](CCC(N)=O)NC(=O)[C@@H](NC(=O)[C@H](C)NC(=O)[C@@H]1CSSC[C@H](NC(=O)[C@H](CCCNC(=N)N)NC(=O)CC[C@H](NC(=O)CCCCCCCCCCCCCCCCCCC(=O)O)C(=O)O)C(=O)N[C@@H](CC(N)=O)C(=O)N[C@@H]([C@@H](C)O)C(=O)N[C@@H](C)C(=O)N[C@@H]([C@@H](C)O)C(=O)N1)[C@@H](C)O [Compound 176, [19CD]-isoGlu-RC()NTATC()ATQRLAEFLHHSSNNF-Gly(Me)-Ile(Me)-LPPTNVGSNTP-NH2] ({C20 diacid-γGlu}-RCNTATCATQRLAEFLHHSSNNF[Sar][NMeI]LPPTNVGSNTP-NH2; disulfide 2-7) | – | – | – | 81 | 24.4 | 23.8 | – | –
